The values below come from the NIST ThermoML archive (doi:10.1016/j.jct.2010.11.006).

Numbers after ± are expanded uncertainties.

For series [1] the following is noted: Crystal; for Normal melting temperature: DTA.
Series [2] can be described thus: Molar enthalpy of transition or fusion. Particulars: Crystal; DSC.
The nature of series [3]: molar enthalpy of vaporization or sublimation. Particulars: 298.15 K; Crystal; Calver Calorimeter- drop method.

Regarding `O=C1CSc2ccccc2N1` [2H-1,4-benzothiazin-3(4H)-one], the “molar enthalpy of sublimation” value in series [1] (298.15 K, Calver Calorimeter- drop method) turned out to be 28.2 ± 1.82 kcal/mol. Also, in series [1], the Normal melting temperature turned out to be 178.24 ± 0.39 °C. In addition, the “Molar enthalpy of transition or fusion” value in series [2] is 6.04 ± 0.143 kcal/mol.

In the case of `O=c1[nH]sc2ccccc12` [1,2-benzisothiazol-3(2H)-one], the Normal melting temperature in series [1] came out at 155.64 ± 0.39 °C. In addition, the “Molar enthalpy of transition or fusion” value in series [2] was found to be 4.99 ± 0.117 kcal/mol. The molar enthalpy in series [3] worked out at 26.9 ± 1.2 kcal/mol.
